Legend:
[1] = disclosed in Patent Document 1; cited from earlier work
[2] = Stability test of compound (Ia) in crystalline state (purity by HPLC on storage); format: physicochemical; conditions: 20° C. and 40° C., after 6, 17, 21 and 31 days
Procedure: Stability Test of Compound (Ia) in Crystalline State
About 2 g of the compound (Ia) in a crystalline form which was obtained in the same way as Example 1 was placed in sample bottles, and the sample bottles were stored at room temperature (about 20° C.) and in a room maintained at a temperature of about 40° C. Taking the original purity as 100%, after every several number of days, the purity of the compound (Ia) was measured using high-performance liquid chromatography (HPLC). The HPLC measurement conditions are shown below.
Solvent delivery system: LC-10A (manufactured by Shimadzu Corporation)
UV, VIS detector: SPD-10A (manufactured by Shimadzu Corporation)
Detection wavelength: 215 nm
Column heater: Sugai U-620 (used at 40° C., Sugai Chemical Industry Co., Ltd.)
Column: Inertsil® ODS-2 (4.6 mm diameter×250 mm length, GL Sciences, Inc.)

SMILES	stability in the crystalline form [1]	stability of the crystalline form [2]
C[C@@H](O)[C@H]1C(=O)N2C(C(=O)OCc3ccc([N+](=O)[O-])cc3)=C(OP(=O)(Oc3ccccc3)Oc3ccccc3)[C@H](C)[C@H]12 [compound (Ib)]	excellent stability in the crystalline form	–
C=CCOC(=O)C1=C(OP(=O)(OCC(Cl)(Cl)Cl)OCC(Cl)(Cl)Cl)[C@H](C)[C@@H]2[C@@H]([C@@H](C)O)C(=O)N12 [compound (Ia), allyl-(1R,5R,6S)-2-[bis(2,2,2-trichloroethyl)phosphoryloxy]-6-[(R)-1-hydroxyethyl]-1-methyl-carbapenem-3-carboxylate]	–	very stable without a decrease in purity

Source: patent publication US7919616B2, “Carbapenem compound” (priority 2005, dated 2011)
